From patent US20240285727A1, “NOVEL THERAPEUTIC PEPTIDES FOR NEURODEGENERATION” (UNIVERSITY OF SOUTHERN CALIFORNIA, priority 2021, published 2024) come the findings set out here.

In the test the test system is SHSY5Y. The experiment in a line: Analogue screening assay, measured by MTT. The settings on record: as a percentage compared to SHMOOSE (SHMOOSE activity as 100%). In kind it is cell-based. The source says: FIG. 10 depicts an analogue screening assay, measured by MTT. Top: each bar represents a fragment (25-amino acid in length) of SHMOOSE. Bottom: each bar represents a phosphomimetic fragment (25-amino acid in length) of SHMOOSE. Cell model is SHSY5Y. The Inventors made 103 analogues/derivatives (see Table 1).
The Inventors made 103 analogues (Table 1). Referring to FIG. 10, in the top figure, each bar represents a 25-amino acid fragment of the SHMOOSE peptide. […] The sequence length of the analogue is 14 amino acids and 3 different analysis windows of the analogue, each having 11 amino acids, were characterized. […]

On to “13 (LKDNSYPLVLGPKNFGATPNKSNNH) [compound 13]”, for which the “% Efficacy” value is reported as −58.60%.

With “53 (DWLDQLLKDNDDPLVLGPKNFGADP) [compound 53]”, the “% Efficacy” value is given as −76.54%.

For “26 (NFGATPNKSNNHAHYYNHPNPDFPN) [compound 26]”, the “% Efficacy” value is −232.44%.

Take “11 (QLLKDNSYPLVLGPKNFGATPNKSN) [compound 11]”: the “% Efficacy” value is on record as −85.19%.

For “30 (TPNKSNNHAHYYNHPNPDFPNSPHP) [compound 30]”, the “% Efficacy” value was −367.82%.

Regarding “106 (MPSCLTTWLSSLLSDNSYPLVLGPKNFGATPNKSNNHAHYYNHPNPDFPNSPHPYHPR) [compound 106]”, the “% Efficacy” value is −14.53%.

On to “97 (MPPCITTWLSQLLKDNSYPLVLGPKNFGATPNKSNNHAHYYNHPNPDFPNSPHPYHPR) [compound 97]”, for which the “% Efficacy” value is listed as −1.709%.

For “27 (FGATPNKSNNHAHYYNHPNPDFPNS) [compound 27]”, the “% Efficacy” value was −226.16%.

On to “79 (KDNNHAHDDNHPNPDFPNDPHPDHP) [compound 79]”, for which the “% Efficacy” value was −183.31%.

Consider “57 (QLLKDNDDPLVLGPKNFGADPNKDN) [compound 57]”, for which the “% Efficacy” value is −1.36%.

Take “45 (KSNNHAHYYNHPNPNFPNSPHPYHP) [compound 45]”: the “% Efficacy” value is given as −292.14%.

For “40 (GATPNKSNNHAHYYNHPNPNFPNSP) [compound 40]”, the “% Efficacy” value is −302.11%.

On to “66 (LVLGPKNFGADPNKDNNHAHDDNHP) [compound 66]”, for which the “% Efficacy” value was −157.61%.

Take “74 (GADPNKDNNHAHDDNHPNPDFPNDP) [compound 74]”: the “% Efficacy” value is −228.29%.

“56 (DQLLKDNDDPLVLGPKNFGADPNKD) [compound 56]”: the “% Efficacy” value is −93.30%.

For the substance “19 (PLVLGPKNFGATPNKSNNHAHYYNH) [compound 19]”, the “% Efficacy” value is given as −191.36%.

Consider “48 (PPCLDDWLDQLLKDNDDPLVLGPKN) [compound 48]”, for which the “% Efficacy” value is listed as −159.22%.

“10 (SQLLKDNSYPLVLGPKNFGATPNKS) [compound 10]”: the “% Efficacy” value is reported as −107.19%.

In the case of “15 (DNSYPLVLGPKNFGATPNKSNNHAH) [compound 15]”, the “% Efficacy” value was 51.51%.

With “6 (TTWLSQLLKDNSYPLVLGPKNFGAT) [compound 6]”, the “% Efficacy” value is listed as −42.74%.

On to “49 (PCLDDWLDQLLKDNDDPLVLGPKNF) [compound 49]”, for which the “% Efficacy” value is recorded as −168.90%.

As to “41 (ATPNKSNNHAHYYNHPNPNFPNSPH) [compound 41]”, the “% Efficacy” value was −188.45%.

As to “29 (ATPNKSNNHAHYYNHPNPDFPNSPH) [compound 29]”, the “% Efficacy” value is given as −262.37%.

Consider “65 (PLVLGPKNFGADPNKDNNHAHDDNH) [compound 65]”, for which the “% Efficacy” value is reported as −163.31%.

For “58 (LLKDNDDPLVLGPKNFGADPNKDNN) [compound 58]”, the “% Efficacy” value was −58.59%.

On to “73 (FGADPNKDNNHAHDDNHPNPDFPND) [compound 73]”, for which the “% Efficacy” value is listed as −306.02%.

Turning to “98 (MPPCITTWISQLLKDNSYPLVLGPKNFGATPNKSNNHAHYYNHPNPDFPNSPHPYHPR) [compound 98]”, the “% Efficacy” value is on record as 1.709%.

With “9 (LSQLLKDNSYPLVLGPKNFGATPNK) [compound 9]”, the “% Efficacy” value is given as −82.17%.

Turning to “12 (LLKDNSYPLVLGPKNFGATPNKSNN) [compound 12]”, the “% Efficacy” value is recorded as −97.85%.

As for “18 (YPLVLGPKNFGATPNKSNNHAHYYN) [compound 18]”, the “% Efficacy” value is reported as −133.09%.

Consider “25 (KNFGATPNKSNNHAHYYNHPNPDFP) [compound 25]”, for which the “% Efficacy” value is on record as −8.52%.

With “4 (CLTTWLSQLLKDNSYPLVLGPKNFG) [compound 4]”, the “% Efficacy” value was found to be 12.47%.

Consider “32 (NKSNNHAHYYNHPNPDFPNSPHPYH) [compound 32]”, for which the “% Efficacy” value is on record as −145.56%.

On to “21 (VLGPKNFGATPNKSNNHAHYYNHPN) [compound 21]”, for which the “% Efficacy” value is recorded as −50.24%.

Regarding “91 (KDNNHAHDDNHPNPNFPNDPHPDHP) [compound 91]”, the “% Efficacy” value was −104.32%.

As for “2 (PPCLTTWLSQLLKDNSYPLVLGPKN) [compound 2]”, the “% Efficacy” value was determined as 37.99%.

As to “68 (LGPKNFGADPNKDNNHAHDDNHPNP) [compound 68]”, the “% Efficacy” value is −144.36%.

In the case of “3 (PCLTTWLSQLLKDNSYPLVLGPKNF) [compound 3]”, the “% Efficacy” value is listed as 115.35%.

“46 (SNNHAHYYNHPNPNFPNSPHPYHPR) [compound 46]”: the “% Efficacy” value was −59.27%.

In the case of “84 (NFGADPNKDNNHAHDDNHPNPNFPN) [compound 84]”, the “% Efficacy” value is reported as −84.90%.

Turning to “70 (PKNFGADPNKDNNHAHDDNHPNPDF) [compound 70]”, the “% Efficacy” value was −157.35%.

For the substance “33 (KSNNHAHYYNHPNPDFPNSPHPYHP) [compound 33]”, the “% Efficacy” value is on record as −119.66%.
